Source: patent publication US6207648A, “Methods of using cytochrome P450 reductase for the enhancement of P450-based anti-cancer gene therapy” (priority 1998, dated 2001)
“Also recorded” adds a separate entry of the source. Where two headings read alike, the source gives them in different places.

What was measured:
[1] = test system: human P450 genes expressed in 9L cells; test: Semicarbazide trapping/fluorescence assay for 4-hydroxy metabolites in 9L/P450 cells; assay type: in vitro ADME; details: 2 mM, 24 h
Description: Each of the indicated 9L cell lines was seeded on a 48-well plate in duplicate at 2×10^4 cells/well. […] Background fluorescence observed in 9L/Babe cells was subtracted from each sample.
Semicarbazide trapping/fluorescence assay for 4-hydroxy metabolites: 9L/P450 cells were seeded on a 48 well plate in duplicate at 2×10^4 cells/ well. […] Culture media, 400 μl, was removed and then treated with 160 μl of ice cold 5.5% (w/v) ZnSO4, 160 μl ice cold saturated Ba(OH)2, and 80 μl ice cold 0.01 M HCl. The mixture was vortexed and then centrifuged at 16,000 g for 15 minutes. 300 μl of the supernatant was transferred under dim light to a clean tube containing 540 μl of water and 160 μl of freshly prepared fluorescent reagent (60 mg 3-aminophenol and 60 mg hydroxylamine-HCl per 10 ml of 1 M HCl). The tubes were vortexed and heated at 90° C. for 20 minutes. Fluorescent readings were obtained at 350 nm (excitation), and 515 nm (emission) using 800 μl of each sample. Fluorescent values were converted to nmol 4-hydroxy metabolite/ml of original culture media based on standard curves generated using 4-hydroperoxy-CPA and then normalized to units of nmol 4-hydroxy metabolite formed per 24 hours per 10^6 cells.

[2] = test system: 9L/pBabe bystander cells; test: Bystander cytotoxicity/co-culture with cell culture inserts; assay type: cell-based, rat; details: for cytotoxicity at 670 µM: Rattus norvegicus, 96 h, 9L/2B6/reductase, 0.67 mM
Description: FIGS. 18A and 18B are graphs depicting the bystander cytotoxicity of 9L/2B6/reductase and 9L/2B6 cells. In FIG. 18A, bystander cytotoxicity of 9L/2B6/reductase cells is compared to that of 9L/2B6 cells. In both cases, 9L/pBabe served as the bystander cells. 9L/pBabe cells were plated in duplicate at 10^5 cells/well of a 6-well plate (lower chamber). 9L/2B6/reductase cells or 9L/2B6 cells were plated in 25 mm cell culture inserts (upper chamber) at concentrations ranging from 10^4 to 6×10^5 cells, corresponding to ratios of 0.1 to 6 relative to the bystander 9L/pBabe cells growing in the lower chamber, as shown on the x-axis. Cells were incubated in a total volume of 3 ml Dulbecco's minimal essential medium (DMEM), 10% FBS, containing 1 mM CPA, final CPA concentration.
The experimental design was the same as in FIG. 18A, except that the final drug concentration was 0.67 mM. Data shown for both panels correspond to the survival of 9L/pBabe bystander cells in the lower chamber.
Bystander cytotoxicity/co-culture experiments: 9L/pBabe cells were plated in duplicate at 10^5 cells/well in the lower chamber of a 6-well Falcon co-culture plate (30 mm diameter wells) (Falcon 3046). 9L/2B6/reductase cells were plated in 25 mm cell culture inserts (0.4 μm pore size; Falcon 3090), at dilutions ranging from 0. 1 to 6 times the number of 9L/pBabe cells plated in the lower chamber. […] Relative cell numbers were quantitated 4 days later by crystal violet staining.

[3] = test system: 9L/pBabe, 9L/2B6/reductase and 9L/2C18-Met/reductase tumors in scid mice; test: Tumor growth delay assay in scid mice; assay type: in vivo, mouse
Text: FIGS. 19A-19D are graphs depicting the results of a tumor growth delay assay in severe combined immunodeficiency (scid) mice bearing 9L/pBabe, 9L/2B6/reductase, and 9L/2C18-Met/reductase solid tumors. Shown are the effects of CPA treatment on growth of 9L/pBabe tumors growing on the left flank of scid mice that also bear either a 9L/2B6/reductase tumor (FIG. 19A) or a 9L/2C18-Met/reductase tumor ((FIG. 19C)) on the right flank. Also shown are the effects of CPA on growth of 9L/2B6/reductase (FIG. 19B) or 9L/2C18-Met/reductasetumors ((FIG. 19D)) in these same mice. Tumor areas were measured twice a week with Vernier calipers. The arrows above the x-axis in each panel indicate the days on which CPA was given by intraperitoneal (i.p.) injection at 150 mg/kg, as described in the "Materials and Methods" section of Example 2. Data shown is mean tumor area (mm^2)±SEM for n=4 tumors per treatment group. Mice not treated with CPA died earlier than the CPA-treated mice, as indicated by the earlier decrease in number of remaining mice from n =4 (initial number of mice/group) to n=3, 2, or 1. Open circles indicate CPA-treated mice; closed circles indicate saline controls.
Tumor Growth Delay Assay: Six week old male ICR/Fox Chase/outbred immunodeficient scid mice (Paine-Murrieta, G. D., et al., Cancer Chemother Pharmacol. 40:209-214 (1997)) (Taconic Farms, Germantown, N.Y.) weighing 26-31g were given subcutaneous tumor cell injections to form solid tumors. Tumor cells were grown in culture to approximately 75% confluency, harvested by trypsin digestion, washed in PBS, resuspended in fetal bovine serum-free DMEM at a concentration of 8×10^6 cells/ml and kept on ice. Mice were shaved on both hind flanks, and then were injected subcutaneously on the left flank with 4×10^6 9L/pBabe tumor cells, and on the right flank with 4×10^6 of either 9L/2B6/reductase or 9L/2C18-Met/reductase tumor cells (8 mice/group). Tumor cell injections were in a volume of 0.5 ml of serum-free DMEM using a 1/2 inch 27 g needle and 1 ml syringe. Tumor growth was monitored twice a week using Vernier calipers (Manostat Corp., Switzerland) to measure tumor area. On days 26 and 27 after tumor cell inoculation, 4 animals from each group (four 9L/pBabe:9L/2B6/reductase mice and four 9L/pBabe:9L/2C18-Met/reductase mice) received daily intraperitoneal injections of CPA at 150 mg/kg dissolved in 0.3 ml of 0.9% NaCl. The remaining animals received saline injections. Average tumor areas ranged from 80-145 mm^2 at the time of CPA injection. Mice were given a second course of CPA treatment (150 mg/kg×2 daily injections) beginning 24-29 days after the first CPA injection, as indicated in each experiment.

[4] = test system: 9L/pBabe, 9L/2B6, 9L/hRED and 9L/2B6/hRED gliosarcoma cells; test: Cytotoxicity assay of 9L cells transduced with human RED and/or P450 2B6, normoxic or hypoxic (Example 3)
Description: Cells were seeded at 4000 cells/well in 48-well plates and treated with increasing concentrations of CPA for 4 days. Cell growth in comparison to drug-free controls was determined by crystal violet staining and is presented as mean±SD for n=3 replicates.
FIG. 21 is a graph depicting the cytotoxic effects of the bioreductive drug TPZ toward 9L/pBabe control cells and 9L cells transduced with retroviruses encoding human RED and/or P450 2B6 under normoxic culture conditions. Cells were seeded at 4000 cells/well in 48-well plates and treated with increasing concentrations of TPZ for 4 days. Cell growth in comparison to drug-free controls was determined by crystal violet staining and is presented as mean±SD for n=3 replicates.
FIG. 22 is a graph depicting the cytotoxicity of increasing concentrations of TPZ under hypoxic conditions (1% O2) toward 9L tumor cells transduced with retroviruses encoding P450 2B6 and/or human RED. 9L/pBabe cells served as controls. Cells were seeded at 4000 cells/well in 48-well plates and treated with increasing concentrations of TPZ for 4 days. Cell growth in comparison to drug-free controls was determined by crystal violet staining and is presented as mean±SD for n=3 replicates.
FIGS. 24A, 24B and 24C are graphs depicting the cytotoxic effects of TPZ (5 or 10 μM, as indicated) in combination with increasing concentrations of CPA under normoxic culture conditions (19.6% O2, 5% CO2). The data shown were obtained using 9L/2B6/hRED cells (FIG. 24A), 9L/hRED cells (FIG. 24B) and 9L/pBabe (control) cells (FIG. 24C). Data were compared to the cytotoxicity of increasing concentrations of CPA alone (i. e., in the absence of TPZ) measured using the same pools of tumor cells. Cells were seeded at 4000 cells/well in 48-well plates and then treated with the indicated drug concentrations for 4 days. Cell growth in comparison to drug-free controls (i.e., in the absence of CPA and TPZ) was determined by crystal violet staining and is presented as mean±SD for n=3 replicates.
FIGS. 25A, 25B and 25C are graphs depicting the cytotoxic effects of TPZ (0.5 or 1.5 μM, as indicated) in combination with increasing concentrations of CPA under hypoxic culture conditions (1% O2, 5% CO2). The data shown were obtained using 9L/2B6/hRED cells (FIG. 25A), 9L/hRED cells (FIG. 25B) and 9L/pBabe (control) cells (FIG. 25C). Data were compared to the cytotoxicity of increasing concentrations of CPA alone (i.e., in the absence of TPZ) measured using the same pools of tumor cells. Cells were seeded at 4000 cells/well in 48-well plates and then treated with the indicated drug concentrations for 4 days. Cell growth in comparison to drug-free controls (i.e., in the absence of CPA and TPZ) was determined by crystal violet staining and is presented as mean±SD for n=3 replicates.
Cytotoxicity assays: To evaluate the chemosensitivity of the P450- and P450/RED-expressing 9L tumor cells, cells were plated in triplicate at 4000 cells/well of a 48-well plate 18-24 hours prior to drug treatment. Cells were then treated with drugs (0 to 1 mM CPA or 0 to 50 μM TPZ, as indicated in each experiment) and placed in a tissue culture incubator maintained under hypoxic conditions (1% O2, 5% CO2, 94% N2) or under normoxic conditions (19.6% O2, 5% CO2, 75.4% N2) for a period of 4 days. 9L/pBabe cells, which were transduced with the empty retroviral plasmid pBabe-puro (see, Example 2), served as controls. Cells remaining after this time were quantitated using a crystal violet/alcohol-extraction assay, as described under Example 2. Data are presented as cell number relative to drug-free controls, mean±SD values for triplicate samples, unless indicated otherwise.

SMILES: O=P1(N(CCCl)CCCl)NCCCO1 (stereo not shown) [CPA, cyclophosphamide]
- effect of RED transduction on drug activation in 9L parental cells [1]: did not stimulate drug activation
- effect of RED transduction on cytotoxic metabolites accumulating in the culture medium ([1]; CYP2B6 and CYP2C18-Met cells): significant increase in cytotoxic metabolites
- bystander killing of 9L/pBabe cells by 9L/2B6/reductase vs 9L/2B6 cells ([2]; 1 mM CPA, cell ratio for 50% bystander cytotoxicity): approximately 3 fold
- bystander cytotoxic effect on non-P450-expressing 9L cells ([2]; 2B6 and RED-transduced tumor cells): strong cell contact-independent bystander cytotoxic effect; also recorded: striking bystander cytotoxic effect
- cytotoxicity at 670 µM ([2]; P450:non-P450 ratio approximately 0.5-1, read-out: bystander toxicity toward non-P450 tumor cells): ~40%
- cytotoxicity at 670 µM ([2]; cell ratio >3, read-out: bystander toxicity toward non-P450 cells): ≥ 80%
- growth delay of 2B6 and P450 reductase-transduced tumors ([3]; 150 mg/kg i.p.): > 50 days
- growth inhibition of 9L/2C18-Met/reductase tumors ([3]; 150 mg/kg i.p.): significant, albeit incomplete growth inhibition
- growth delay for 9L/pBabe tumors ([3]; 2B6 experiment, first cycle 150 mg/kg i.p. x2, days 26 and 27): no growth delay
- growth delay effect against 9L/pBabe control tumors ([3]; 2B6 experiment, second cycle): modest growth delay effect
- growth delay of 9L/pBabe control tumors ([3]; 2C18-Met experiment): 5-6 days
- growth delay in RED tumors ([3]; 9L/2B6/RED and 9L/2C18-Met/RED): 25 to 50 days
- host toxicity ([3]; CPA-treated scid mice): no apparent increase in host toxicity
- growth delay without P450 ([3]; control 9L tumors): 5 to 6 days
- growth of 9L/2B6/reductase tumors ([3]; first cycle 150 mg/kg i.p. x2): fully blocked
- duration of anti-tumor effect in 9L/2B6/reductase tumors ([3]; second cycle): ≥ 75 day after tumor inoculation
- effect of hypoxia on CPA cytotoxicity toward 9L/2B6/RED or 9L/2B6 cells ([4]; 1% O2): does not significantly alter the cytotoxicity
- CPA cytotoxicity on retroviral transduction of hRED ([4]; 9L/2B6/hRED vs 9L/2B6, normoxic): large increase in CPA cytotoxicity
- CPA cytotoxicity in 9L/hRED and 9L/pBabe cells ([4]; normoxic): No CPA cytotoxicity was observed
